Like-named read-outs stand apart in the source and are kept apart here.
How the values were obtained:
[1] = Concentration of Compound 3 in rat plasma after i.v. liposome (LC/MS/MS); assay type: in vivo, SD rat; settings: male, Sprague-Dawley, iv, 40 mg/kg; for AUC / Cmax / half-life / concentration at 5 min / concentration at 1 h / concentration at 2 h / concentration at 6 h / concentration at 24 h: rat, plasma; for concentration at 5 min / concentration at 1 h / concentration at 2 h / concentration at 6 h / concentration at 24 h: SD rat, i.v. BSA-encapsulated pH-responsive liposome ([Lipid]=20 mg/mL, 2 ml/kg), read-out: GGLG concentration in plasma
Procedure: A pH-responsive liposome was prepared from mixed lipid (Compound (3)/cholesterol/PEG-Glu2C18=5/5/0.03 (mol)) using the high-pressure extrusion method. In the preparation, the particle size of the liposome was adjusted to 200 to 250 nm. Further, BSA was encapsulated in the internal aqueous phase. The prepared pH-responsive liposome ([Lipid]=20 mg/mL) was intravenously administered to a SD rat (male, body weight of 300 g or less) via the tail vein in an amount of 2 ml/kg under ether anesthesia. The number of rats used was N=3. Prior to the administration and 5 minutes, 1, 2, 6 and 24 hours after the administration, blood was collected (about 500 μL). The obtained blood was subjected to centrifugation (2,000×g, 20 minutes) to obtain plasma (liposome-suspended plasma), and this was preserved at −80° C. Further, after blood was collected 24 hours after the administration, the liver, spleen, lung and kidney were isolated, the wet weight thereof was measured, and these materials were preserved at −80° C. After that, homogenization was carried out using a saline in an amount 4 times greater than the wet weight of the organs.
A material in which the procedure is carried out until 100 μL of methanol is added to 10 μL of homogenate solution of plasma and the organs was used as a sample for measurement of specimen.
To the above-described sample for measurement, a solution to which an internal standard material (1,5-dihexadecyl N-glutamyl-L-glutamate (αGlu-Glu2C16)) was added (900 μL) was added, and the mixture was subjected to vortex stirring. After that, the mixture was allowed to stand at room temperature for at least 10 minutes. After that, the mixture was subjected to vortex stirring again and centrifuged at 4° C. at 10,000×g for 15 minutes. The obtained supernatant was transferred to an LC vial.
As a column, CAPLCELLPAK C18 MG (Shiseido Co., Ltd.) (3 μm, 2.0×50 mm) was used, and the column temperature was set at 40° C. Gradient elution was carried out using 0.1% acetic acid aqueous solution (A)-0.1% methanol acetate (B). The flow rate was 0.25 mL/min. The temperature of the autoinjector was set at 15° C. Regarding a needle washing solution, chloroform/methanol (1:1) was used for a washing pump, and methanol was used for a washing port.
The eluent that was separated by HPLC was subjected to positive ESI ionization and measured in the MRM mode.
An analyte for producing a calibration curve for measurement of plasma was measured, and a calibration curve of 1-300 μg/mL of plasma was prepared with weighting of 1/x^2 and Quadratic. The peak area of the analyte for measurement of plasma/IS peak area was substituted into the obtained formula of the calibration curve to calculate the concentration of Compound 3 in plasma. FIG. 8 is a graph showing the results. In FIG. 8, (-⋄-), (--[…]--) and (--Δ--) show the results of animal 1, animal 2 and animal 3, respectively.

[2] = Preparation of liposome from mixed lipid (dispersion in water, high-pressure extrusion); assay type: physicochemical; settings: mixed lipid compound/cholesterol/PEG-Glu2C18 dispersed in water, high-pressure extrusion 0.22 μm
Procedure: Compound 7, 8 or 9 (0.177 mmol), cholesterol (0.179 mmol) and PEG-Glu2C18 (1.0 μmol) were dissolved in benzene, and the mixture was freeze-dried to prepare a mixed lipid. 20 mg of this mixed lipid was dispersed in 1 mL of water for injection, and the resultant mixture was stirred for 6 hours. After that, liposome having a particle size of about 240 nm was prepared by means of the high-pressure extrusion method (final pore diameter: 0.22 μm).
Compound 3, 12 or 13 (0.177 mmol), cholesterol (0.179 mmol) and PEG-Glu2C18 (1.0 mmol) were dissolved in benzene, and the mixture was freeze-dried to prepare a mixed lipid. 20 mg of this mixed lipid was dispersed in 1 mL of water for injection, and the resultant mixture was stirred for 6 hours. After that, liposome having a particle size of about 240 nm was prepared by means of the high-pressure extrusion method (final pore diameter: 0.22 μm).

[3] = SD rat plasma, i.v. liposome ([Lipid]=20 mg/mL, 2 ml/kg), animal 1
[4] = SD rat plasma, i.v. liposome ([Lipid]=20 mg/mL, 2 ml/kg), Average
[5] = SD rat plasma, i.v. liposome ([Lipid]=20 mg/mL, 2 ml/kg), animal 2
[6] = SD rat plasma, i.v. liposome ([Lipid]=20 mg/mL, 2 ml/kg), animal 3

## CCCCCCCCCCCCCCCCOC(=O)CCC(NC(=O)C(CCCCNC(=O)C(N)CCC(=O)O)NC(=O)C(N)CCC(=O)O)C(=O)OCCCCCCCCCCCCCCCC (centres unmarked) [Compound 3]
[1]; [3]
  Tmax: 4.98 min
  AUC: 266 µg·h/mL
  Cmax: 105000 ng/mL
[1]; [4]
  AUC: 309 µg·h/mL
  Cmax: 132000 ng/mL
[1]; SD rat plasma, i.v. liposome ([Lipid]=20 mg/mL, 2 ml/kg), Average, read-out: t½ (converted)
  half-life: 4.84 h
[1]; SD rat plasma, i.v. liposome ([Lipid]=20 mg/mL, 2 ml/kg), animal 1, read-out: t½ (converted)
  half-life: 5.03 h
[1]; [5]
  AUC: 364 µg·h/mL
  Cmax: 153000 ng/mL
[1]; SD rat plasma, i.v. liposome ([Lipid]=20 mg/mL, 2 ml/kg), animal 2, read-out: t½ (converted)
  half-life: 4.31 h
[1]; [6]
  AUC: 297 µg·h/mL
  Cmax: 136000 ng/mL
[1]; SD rat plasma, i.v. liposome ([Lipid]=20 mg/mL, 2 ml/kg), animal 3, read-out: t½ (converted)
  half-life: 5.18 h
[1]; Average value (N=3)
  concentration at 5 min: 132000 ng/mL
  concentration at 1 h: 53600 ng/mL
  concentration at 2 h: 31200 ng/mL
  concentration at 6 h: 8900 ng/mL
  concentration at 24 h: 1130 ng/mL
[1]; animal 1
  concentration at 5 min: 105000 ng/mL
  concentration at 1 h: 44700 ng/mL
  concentration at 2 h: 25800 ng/mL
  concentration at 6 h: 8390 ng/mL
  concentration at 24 h: 1020 ng/mL
[1]; animal 2
  concentration at 5 min: 153000 ng/mL
  concentration at 1 h: 62400 ng/mL
  concentration at 2 h: 39300 ng/mL
  concentration at 6 h: 10200 ng/mL
  concentration at 24 h: 1200 ng/mL
[1]; animal 3
  concentration at 5 min: 136000 ng/mL
  concentration at 1 h: 53500 ng/mL
  concentration at 2 h: 28500 ng/mL
  concentration at 6 h: 8120 ng/mL
  concentration at 24 h: 1170 ng/mL
[1]; from concentration in rat plasma, i.v. pH-responsive liposome, read-out: half-life of Compound 3 (converted)
  half-life: 4.8 h
[2]
  liposome formation with the compound as main component: liposome was formed
